The values below come from ChEMBL document CHEMBL1759835, “Biotransformation of natural compounds. Oxido-reduction of Sch-642305 by Aspergillus ochraceus ATCC 1009” (Bioorg Med Chem Lett, 2011).

The test system of one assay is Bacillus subtilis. Kind of assay: Antibacterial activity against Bacillus subtilis ATCC 6633 at 100 ug by disk inhibition zone method relative to gentamycin. It counts as functional. Further details: scale not given: the % may be the effect or the level left.
The test system of another assay is Escherichia coli. In words: Antibacterial activity against Escherichia coli ATCC 25922 at 100 ug by disk inhibition zone method relative to chloramphenicol. The class given is functional. Further details: scale not given: the % may be the effect or the level left.
The test system of a further assay is Micrococcus luteus. Kind of assay: Antibacterial activity against Micrococcus luteus ATCC 10240 at 100 ug by disk inhibition zone method relative to chloramphenicol. It counts as functional. Further details: scale not given: the % may be the effect or the level left.
The subject of a further assay is MDA-MB-231. Kind of assay: Cytotoxicity against human MDA-MB-231 cells assessed as inhibition of cell proliferation after 72 hrs by MTS assay. The class given is functional, cell-based. The following applies: MDA-MB-231, 72 h. A general note: Tetrazolium assays rely on reduction of a dye to a coloured formazan, in cell work by metabolically active cells.
The subject of another assay is K562. Kind of assay: Cytotoxicity against human K562 cells assessed as inhibition of cell proliferation after 72 hrs by MTS assay. It counts as functional, cell-based. The conditions noted are these: K562, 72 h.

The pIC50 is the negative decadic logarithm of the IC50, by convention in mol/L.

pIC50: −log10 of the molar value.

In the case of `C[C@H]1CCCC[C@H]2C(=O)C[C@H](O)[C@H](O)[C@@H]2CC(=O)O1`, the Activity in the assay with Bacillus subtilis came out at 62.5%; with Escherichia coli it was 0%; with Micrococcus luteus, 0%. Moreover, the pIC50 is 7.92 with MDA-MB-231 and 7.70 in the assay with K562.

Turning to `C[C@H]1CCCC[C@@H]2[C@@H](CC(=O)O1)[C@@H](O)CC[C@@H]2O`, the Activity in the assay with Bacillus subtilis, in the assay on Escherichia coli and in the assay with Micrococcus luteus was 0% throughout. For the same compound, the pIC50 in the assay with MDA-MB-231 is 7.40; in the assay with K562, 8.40.

With `C[C@H]1CCCC[C@H]2C(=O)C=C[C@H](O)[C@@H]2CC(=O)O1`, the Activity in the assay with Bacillus subtilis was found to be 100%; in the assay with Escherichia coli, 0%; in the assay with Micrococcus luteus it was 38%. In addition, the pIC50 in the assay on MDA-MB-231 and in the assay with K562 was 7.70 throughout.

As to `C[C@H]1CCCC[C@H]2C(=O)CC[C@H](O)[C@@H]2CC(=O)O1`, the Activity was 0% in the assay with Bacillus subtilis, 50% in the assay with Escherichia coli and 0% in the assay on Micrococcus luteus. Further, the results for the negative logarithm of the IC50 (pIC50) with MDA-MB-231 and with K562 were 6.40 and 6.70, respectively.
